Entries after “also recorded” stand apart in the source; their conditions may differ.
How the values were obtained:
[1] = test system: Mouse (B16) and human (WM46) melanoma cell lines; test: tumor formation in mice from melanoma cells pretreated in vitro; type: in vivo; conditions: melanoma cells pretreated in vitro, equal numbers injected into mice
Description: (§1) FIG. 11A: Long-term melanin assay in which normal human melanocytes were transiently treated with progesterone (P4), or estrogen (E2). Subsets of these groups (Red) were treated with an additional transient pulse of P4 at Day 27. Error bars equal the standard deviation of the samples. FIG. 11B: Western blot of melanocyte differentiation markers after a transient, 4-day treatment with either vehicle or estrogen, followed by an 8 day withdraw period. FIG. 11C: Experimental timeline of estrogen or GPER agonist (G-1) pre-treatment of mouse and human melanoma cells, n=5 per group. FIG. 11D: Relative tumor weights of mouse and human melanomas pre-treated with estrogen, * denotes significance by the Mann-Whitney test. FIG. 11E: Relative tumor weights of mouse and human melanomas pre-treated with G-1, * denotes significance by the Mann-Whitney test.
Mouse (B16) and human (WM46) cell lines were pretreated with estrogen, G-1, or vehicle in vitro for one week then injected in equal numbers in to the left (vehicle-treated) or right (E2-treated) flank of mice, inducing tumor formation (N=5 mice per group) (FIG. 5). 14-16 days later, mice were imaged and tumors were harvested and weighed.
To test whether transient GPER signaling induces a persistent differentiation state in melanoma cells that affects subsequent tumor growth in vivo, melanoma cells were treated with estrogen, G-1, or vehicle in vitro, and subsequently injected equal numbers of treated cells into host mice (FIG. 11C).

[2] = test system: YUMM 1.7 cells (BRafV600E/wt Pten−/−Cdkn2−/−); test: YUMM 1.7 melanoma in C57BL/6 mice treated with G-1 with and without αPD-1; type: in vivo, mouse; conditions: YUMM 1.7, treatment initiated at day 14
From the text: FIGS. 14A-14F illustrate the finding that treatment of melanoma bearing mice with G-1 and αPD-1 immunotherapy dramatically extends survival. FIG. 14A: Experimental timeline of B16F10 bearing mice treated with vehicle or G-1, as well as αPD-1 antibody or isotype antibody control (2A3), n=10 per group. FIG. 14B: Tumor volumes of treatment groups at Day 14, * denotes significance One-way ANOVA with Tukey's multiple comparison test. FIG. 14C: Survival curve of mice treated with vehicle or G-1, as well as isotype antibody control (2A3) or αPD-1 antibody. FIG. 14D: Experimental outline of YUMM1.7 bearing mice treated with vehicle or G-1, as well as isotype antibody control (2A3) or αPD-1 antibody. Treatment was started at day 14 after tumors reached 4-5 mm in diameter. n=5 per group. FIG. 14E: Tumor volumes over time of treatment groups. FIG. 14F: Survival curve of mice treated with vehicle or G-1, as well as αPD-1 antibody or isotype antibody control (2A3).
Although B16F10 melanoma is the most commonly used model for melanoma immunology studies, and experimental results have largely translated to humans, B16F10 lacks the BRaf or NRas oncodriver mutations present in most human melanomas. […]

[3] = test system: normal human melanocytes; test: differentiation of normal human melanocytes after continuous or transient hormone exposure (melanin, RNAseq, Western blot); type: cell-based; conditions: normal human melanocytes, hormone or agonist exposure
Description: as §1
Normal human melanocytes received a pulse-treatment of estrogen—this consisted of 4 days of estrogen treatment followed by an 8 day withdraw.
To test whether pregnancy-associated hormones induce long-lasting changes in melanocyte differentiation that may affect their future susceptibility to transformation, primary human melanocytes were transiently exposed to estrogen or progesterone (FIGS. 11A-11E).
A subset of cells differentiated by transient exposure to estrogen was subsequently treated with progesterone.

[4] = test system: c-Myc and pRB in syngeneic pancreatic ductal adenocarcinoma (PDAC) cell lines; test: Western blot of PDAC cell lines treated with G-1; conditions: 500 nM, 1 hour
Description: FIG. 17A: Western blot of c-Myc in several PDAC cell lines treated with 500 nM G-1 for 1 hour.
Using a newly available set of syngeneic pancreatic ductal adenocarcinoma (PDAC) cell lines, the effects of GPER activation on the levels of c-Myc protein were examined.

[5] = test system: pCREB and c-Myc in NSCLC line LLC1; test: Western blot of LLC1 cells treated with G-1; type: cell-based; conditions: LLC1, 500 nM
Description: FIGS. 18A-18G illustrate the finding that GPER signaling reduces NSCLC cell proliferation in vitro and in vivo and has combinatorial effects with αPD-1 immunotherapy. FIG. 18A: Western blot for pCREB of LLC1 cells treated with 500 nM G-1 for 30 minutes. FIG. 18B: Proliferation assay of LLC1 treated with 500 nM G-1 for 6 days. FIG. 18C: Western blot for c-Myc of LLC1 cells treated with 500 nM G-1 for 6 days. FIG. 18D: Western blot for c-Myc of LLC1 cells treated with 500 nM G-1 over a time-course. […] FIG. 18F: Tumor volumes over time of LLC1 tumor bearing mice treated with vehicle or G-1, as well as αPD-1 antibody or isotype antibody control (2A3). FIG. 18G: Survival curve of mice treated with vehicle or G-1, as well as αPD-1 antibody or isotype antibody control (2A3).
Reproductive history influences lung cancer as well. Women have a decreasing risk of lung cancer correlated with the number children they have had.

Q: With CC(=O)c1ccc2c(c1)[C@@H]1C=CC[C@@H]1[C@H](c1cc3c(cc1Br)OCO3)N2 (relative stereo) [Compound G-1, rel-1-[4-(6-bromo-1,3-benzodioxol-5-yl)-3aR,4S,5,9bS-tetrahydro-3H-cyclopenta[c]quinolin-8-yl]-ethanone] as the compound, how does the “tumor growth / tumor size from pretreated cells” value [1] read?
A: formed significantly smaller tumors; also recorded: markedly reduced subsequent tumor size

Q: What about the survival [2] of the same compound?
A: modest, but significant, survival increases

Q: What about the “melanocyte differentiation state (melanin pigment production)” value [3] of the same compound?
A: increase the differentiation state of human melanocytes

Q: What about the c-Myc [4] of the same compound?
A: reduced

Q: What about the pRB [4] of the same compound?
A: reduced

Q: And the pCREB levels ([5]; 30 minutes)?
A: elevated pCREB levels

Q: What about the c-Myc protein ([5]; long-term treatment (6 days)) of the same compound?
A: reduction of c-Myc protein

From patent US11369618B2, “Compounds, compositions and methods for prevention and/or treatment of cancer” (THE TRUSTEES OF THE UNIVERSITY OF PENNSYLVANIA, priority 2016, dated 2022)
